Experimental data from ChEMBL document CHEMBL1201862, “PubChem BioAssay data set” (2004).
Activity calls are given as the source filed them. Unless noted, no cut-off for these calls is given here.

Columns and labels:
Format in all cases: functional
[1] = target: T1, Mu-type opioid receptor (Homo sapiens, UniProt P35372); assay: SAR Analysis of Antagonists of the MOR Receptor using an Image-Based Assay - Set 2. [Related pubchem assays (depositor defined):AID1777, AID1785, AID1786, AID1966, AID2133, AID2136, AID2284, AID2285, AID2420]
[2] = target: T2, Kappa-type opioid receptor (Homo sapiens, UniProt P41145); assay: SAR analysis of Agonists of the Kappa Opioid Receptor (KOR) using an Image-Based Assay - Set 2. [Related pubchem assays (depositor defined):AID1777, AID1786, AID1966, AID2133, AID2136, AID2284, AID2285, AID2359]
[3] = target: T3, Delta-type opioid receptor (Homo sapiens, UniProt P41143); assay: SAR Analysis of Agonists of the DOR Receptor using an Image-Based Assay - Set 2. [Related pubchem assays (depositor defined):AID1777, AID1785, AID1786, AID1966, AID2133, AID2136, AID2284, AID2285, AID2370]
[4] = target: T3, Delta-type opioid receptor; assay: SAR Analysis of Antagonists of the DOR Receptor using an Image-Based Assay - Set 2. [Related pubchem assays (depositor defined):AID1777, AID1785, AID1786, AID1966, AID2133, AID2136, AID2284, AID2285, AID2357]
[5] = target: T1, Mu-type opioid receptor; assay: SAR Analysis of Agonists of the MOR Receptor using an Image-Based Assay - Set 2. [Related pubchem assays (depositor defined):AID1777, AID1785, AID1786, AID1966, AID2133, AID2136, AID2284, AID2285, AID2352]
[6] = target: T2, Kappa-type opioid receptor; assay: SAR analysis of Antagonists of the Kappa Opioid Receptor (KOR) using an Image-Based Assay - Set 2. [Related pubchem assays (depositor defined):AID1777, AID1785, AID1786, AID1966, AID2133, AID2136, AID2284, AID2285, AID2348]
[7] = target: T2, Kappa-type opioid receptor; assay: SAR analysis of small molecule agonists of the kappa opioid receptor via a luminescent beta-arrestin assay - Set 2. [Related pubchem assays (depositor defined):AID1777, AID1785, AID1786, AID1966, AID2133, AID2136, AID2284, AID449737]

T2 sequence (P41145 whole entry): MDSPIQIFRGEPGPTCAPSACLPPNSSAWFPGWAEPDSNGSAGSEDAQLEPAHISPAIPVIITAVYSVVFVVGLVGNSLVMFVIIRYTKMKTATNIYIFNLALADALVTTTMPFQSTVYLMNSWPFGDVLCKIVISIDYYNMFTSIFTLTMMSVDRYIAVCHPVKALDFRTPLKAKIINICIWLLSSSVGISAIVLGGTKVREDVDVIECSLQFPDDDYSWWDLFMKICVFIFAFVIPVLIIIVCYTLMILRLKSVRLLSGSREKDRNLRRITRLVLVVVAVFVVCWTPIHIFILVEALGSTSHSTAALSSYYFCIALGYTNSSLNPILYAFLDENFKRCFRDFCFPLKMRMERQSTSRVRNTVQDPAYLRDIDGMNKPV
T1 sequence (P35372 whole entry): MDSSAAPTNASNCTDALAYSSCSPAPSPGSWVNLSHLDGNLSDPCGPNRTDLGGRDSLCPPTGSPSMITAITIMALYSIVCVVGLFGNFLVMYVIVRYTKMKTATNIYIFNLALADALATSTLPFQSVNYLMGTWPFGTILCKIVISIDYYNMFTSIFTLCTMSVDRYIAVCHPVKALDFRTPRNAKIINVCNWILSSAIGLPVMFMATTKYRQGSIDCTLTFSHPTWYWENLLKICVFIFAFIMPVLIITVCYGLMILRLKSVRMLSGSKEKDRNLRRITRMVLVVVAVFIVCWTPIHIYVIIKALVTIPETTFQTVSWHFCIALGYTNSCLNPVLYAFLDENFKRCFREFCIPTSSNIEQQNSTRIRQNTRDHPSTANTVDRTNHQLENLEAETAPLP
T3 sequence (P41143 whole entry): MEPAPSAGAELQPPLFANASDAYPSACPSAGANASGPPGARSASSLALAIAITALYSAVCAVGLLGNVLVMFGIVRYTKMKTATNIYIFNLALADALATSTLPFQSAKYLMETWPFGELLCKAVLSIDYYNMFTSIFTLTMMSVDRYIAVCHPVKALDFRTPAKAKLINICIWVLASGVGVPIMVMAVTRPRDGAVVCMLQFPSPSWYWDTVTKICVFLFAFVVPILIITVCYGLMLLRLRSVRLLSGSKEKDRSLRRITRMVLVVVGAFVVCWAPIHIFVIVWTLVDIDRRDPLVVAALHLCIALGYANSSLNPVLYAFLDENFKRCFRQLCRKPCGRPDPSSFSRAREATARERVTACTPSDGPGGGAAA

CCc1ccc(S(=O)(=O)NCc2ccc(C(=O)NCCN(Cc3ccccc3)C(C)C)cc2)cc1
IC50 [1]: > 32 µM (inactive) | EC50 [2]: > 32 µM (inactive) | EC50 [3]: > 32 µM (inactive) | IC50 [4]: > 32 µM (inactive) | EC50 [5]: > 32 µM (inactive) | IC50 [6]: 2.55 µM (active) | EC50 [7]: > 20 µM (inactive)
